Measured values taken from patent publication US20100321430A1, “INK COMPOSITION FOR INK JET RECORDING” (priority 2009, published 2010).

Experiment: Solubility of 1,2-octanediol in aqueous solution containing an alcohol solvent
Assay type: physicochemical
Conditions: for ability to dissolve 1,2-octanediol compared with HED: aqueous solution containing 10% by weight 1,2-octanediol and 10% by weight 1,2-hexanediol, FIGURE
Method: An aqueous solution containing 10% by weight of 1,2-octanediol, which is a water-insoluble alkanediol, was prepared. […] Therefore, the aqueous solution was cloudy.
Five alcohol solvents were each added to 10 g of the aqueous solution until the aqueous solution became transparent. The five alcohol solvents were 1,6-hexanediol (hereinafter referred to as 1,6-HED), 3-methyl-1,5-pentanediol (hereinafter referred to as 3 MPED), 1,5-pentanediol (hereinafter referred to as 1,5-PED), 1,2-hexanediol (hereinafter referred to as HED), and 2,2′-dimethylpropanediol (hereinafter referred to as 2 MPRD).
Another aqueous solution containing 10% by weight of 1,2-octanediol and 10% by weight of 1,2-hexanediol, which is a water-soluble alkanediol, was prepared. The five alcohol solvents were added to this aqueous solution in the same manner as described above until this aqueous solution became transparent.

Row | solubility in water (aqueous solution containing 10% by weight) | Compound | ability to dissolve 1,2-octanediol compared with HED
1 |  | OCCCCCO [1,5-PED, 1,5-pentanediol] | more capable of dissolving 1,2-octanediol
2 | not completely dissolved | CCCCCCC(O)CO (centres unmarked) [1,2-octanediol] | 
3 |  | OCCCCCCO [1,6-HED, 1,6-hexanediol] | more capable of dissolving 1,2-octanediol
4 |  | CC(CCO)CCO [3 MPED, 3-methyl-1,5-pentanediol] | more capable of dissolving 1,2-octanediol
5 |  | CC(C)(CO)CO [2 MPRD, 2,2′-dimethylpropanediol] | more capable of dissolving 1,2-octanediol
